This is an account of results in PubChem BioAssay AID278 (DTP/NCI, 2004).

Results filed as inconclusive are left out.

For the experiment, the system named is nude mice, A549 intrarenal xenograft, tumor weight change. The experiment is described as follows: NCI In Vivo Anticancer Drug Screen. Data for tumor model A549 Human Adenocarcinoma of Lung with characteristics of Type II Alveolar Epithelial cells (intrarenal inoculation) in NU/NU BALB/C (nude) mice. The conditions noted are these: endpoint: mean tumor weight change, schedule: Q04DX003 (ip), higher = larger tumour. An outline of the steps:
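Mice bearing transplantable tumors were treated and survival or tumor size recorded. Values are given as treated-group measurement divided by vehicle-control measurement (T/C).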

Setting [1] is: dose: 100.0 mg/kg/injection, vehicle: saline.
[2] abbreviates: dose: 100.0 mg/kg/injection, vehicle: saline with Tween-80.
Setting [3] is: dose: 200.0 mg/kg/injection, vehicle: saline with Tween-80.
Where [4] appears, read: dose: 75.0 mg/kg/injection, vehicle: other.
Where [5] appears, read: dose: 150.0 mg/kg/injection, vehicle: other.
The mark [6] stands for this setting: dose: 25.0 mg/kg/injection, vehicle: saline with Tween-80.
Setting [7] is: dose: 50.0 mg/kg/injection, vehicle: saline with Tween-80.

Take `O=C([O][Bi]([c]1ccccc1)[c]1ccccc1)c1ccccc1`: the T/C runs as follows: (dose: 25.0 mg/kg/injection, vehicle: Klucel (hydroxypropylcellulose) (HPC)) 83 % of control; (dose: 50.0 mg/kg/injection, vehicle: Klucel (hydroxypropylcellulose) (HPC)) 76 % of control; (dose: 200.0 mg/kg/injection, vehicle: Klucel (hydroxypropylcellulose) (HPC)) 73 % of control.
Consider `CC1OC2CC(O)C1(O)C1=C2C(O)=C(C(N)=O)C(=N)C1=O` (stereo not drawn), for which the T/C is 66 % of control (dose: 0.63 mg/kg/injection, vehicle: saline + alcohol); 48 % of control (dose: 1.25 mg/kg/injection, vehicle: saline + alcohol); 35 % of control (dose: 2.5 mg/kg/injection, vehicle: saline + alcohol); 94 % of control (dose: 5.0 mg/kg/injection, vehicle: saline + alcohol).
As for `CC#CCOCC(O)CCl` (stereo not drawn), the T/C runs as follows: under setting [1], 104 % of control; (dose: 200.0 mg/kg/injection, vehicle: saline) 90 % of control; (dose: 400.0 mg/kg/injection, vehicle: saline) 111 % of control.
On to `O=C(O)c1cc(C(=O)O)c(C(=O)O)cc1C(=O)O.[NH2-].[NH2-].[NH2-].[NH2-].[Pt+2].[Pt+2]`, for which the T/C (dose: 12.5 mg/kg/injection, vehicle: water) is 102 % of control.
Take `COc1ccc(C[C@@H]2NC[C@@H](O)[C@@H]2OC(C)=O)cc1`: the T/C is, setting by setting: (dose: 37.5 mg/kg/injection, vehicle: saline with Tween-80) 87 % of control; (dose: 75.0 mg/kg/injection, vehicle: saline with Tween-80) 48 % of control; (dose: 150.0 mg/kg/injection, vehicle: saline with Tween-80) 86 % of control.
Turning to `NC(=S)N/N=C/c1ccc(O)cn1`, the T/C is, setting by setting: under setting [2], 46 % of control; under setting [3], 57 % of control; (dose: 400.0 mg/kg/injection, vehicle: saline with Tween-80) 53 % of control.
Take `O=C(NC(Cc1ccc(I)cc1)C(=O)O)c1ccc(Br)cc1` (stereo not drawn): the T/C runs as follows: (dose: 37.5 mg/kg/injection, vehicle: other) 51 % of control; (dose: 37.5 mg/kg/injection, vehicle: sodium bicarbonate) 78 % of control; under setting [4], 7 % of control; (dose: 75.0 mg/kg/injection, vehicle: sodium bicarbonate) 103 % of control; under setting [5], 9 % of control; (dose: 150.0 mg/kg/injection, vehicle: sodium bicarbonate) 83 % of control.
Regarding `COc1cc2c(cc1OC)[C@@H]1C(=O)c3ccc4c(c3O[C@@H]1CO2)C[C@H](C(C)C)O4`, the T/C runs as follows: (dose: 21.25 mg/kg/injection, vehicle: Klucel (hydroxypropylcellulose) (HPC)) 90 % of control; (dose: 42.5 mg/kg/injection, vehicle: Klucel (hydroxypropylcellulose) (HPC)) 87 % of control; (dose: 85.0 mg/kg/injection, vehicle: Klucel (hydroxypropylcellulose) (HPC)) 37 % of control.
For `CO[C@@H]1C2=CC=CC=C[C@H]2n2c(=O)n(C)c(=O)n21`, the T/C (dose: 37.5 mg/kg/injection, vehicle: water) was 223 % of control; the T/C under setting [4] is 32 % of control; the T/C (dose: 75.0 mg/kg/injection, vehicle: water) is 195 % of control; the T/C under setting [5] is 74 % of control; the T/C (dose: 150.0 mg/kg/injection, vehicle: water) was 158 % of control.
Consider `COC1=C(OC)C(=O)C(N(C)C)=C(CO)C1=O`, for which the T/C runs as follows: (dose: 50.0 mg/kg/injection, vehicle: saline) 123 % of control; under setting [1], 173 % of control.
Consider `CC(=O)C[n+]1ccccc1Sc1ccc(Cl)cc1`, for which the T/C (dose: 12.5 mg/kg/injection, vehicle: saline with Tween-80) was 107 % of control; the T/C under setting [6] is 80 % of control; the T/C under setting [7] was 93 % of control; the T/C under setting [2] was 79 % of control.
For the compound `C/C=C/CC(C)C(O)C1C(=O)NC(CC)C(=O)N(C)CC(=O)N(C)C(CC(C)C)C(=O)NC(C(C)C)C(=O)N(C)C(CC(C)C)C(=O)NC(C)C(=O)NC(C)C(=O)N(C)C(CC(C)C)C(=O)N(C)C(CC(C)C)C(=O)N(C)C(C(C)C)C(=O)N1C` (stereo not drawn), the T/C (dose: 75.0 mg/kg/injection, vehicle: Klucel (hydroxypropylcellulose) (HPC)) was 158 % of control and the T/C (dose: 150.0 mg/kg/injection, vehicle: Klucel (hydroxypropylcellulose) (HPC)) was 65 % of control.
Consider `C=C(CO)C(=O)OC1CC(=C)C2CC(O)C(=C)C2[C@H]2OC(=O)C(=C)C12` (stereo partly drawn), for which the T/C runs as follows: (dose: 2.36 mg/kg/injection, vehicle: saline + alcohol) 64 % of control; (dose: 4.72 mg/kg/injection, vehicle: saline + alcohol) 99 % of control; (dose: 8.75 mg/kg/injection, vehicle: saline + alcohol) 86 % of control.
Take `NNC(=O)c1ccncc1`: the T/C is 99 % of control (dose: 37.5 mg/kg/injection, vehicle: saline); 104 % of control (dose: 75.0 mg/kg/injection, vehicle: saline); 69 % of control (dose: 150.0 mg/kg/injection, vehicle: saline).
For the compound `CCOC(=O)Nc1cc2c(c(N)n1)N=C(c1ccc3ccccc3c1)CN2`, the T/C runs as follows: (dose: 7.5 mg/kg/injection, vehicle: saline with Tween-80) 82 % of control; (dose: 15.0 mg/kg/injection, vehicle: saline with Tween-80) 113 % of control; (dose: 30.0 mg/kg/injection, vehicle: saline with Tween-80) 63 % of control; (dose: 60.0 mg/kg/injection, vehicle: saline with Tween-80) 55 % of control.
Consider `CCCCNc1ccc2nnc(C)n2n1`, for which the T/C runs as follows: (dose: 75.0 mg/kg/injection, vehicle: DMSO) 75 % of control; (dose: 150.0 mg/kg/injection, vehicle: DMSO) 19 % of control; (dose: 300.0 mg/kg/injection, vehicle: DMSO) 65 % of control.
For `ClC1(Cl)Cc2ccccc21`, the T/C runs as follows: under setting [7], 119 % of control; under setting [2], 57 % of control; under setting [3], 119 % of control.
With `CC(C)(C[NH-])C[NH-].[Cl][Pt+2][Cl]`, the T/C is, setting by setting: (dose: 1.5 mg/kg/injection, vehicle: water) 40 % of control; (dose: 3.0 mg/kg/injection, vehicle: water) 70 % of control; (dose: 6.0 mg/kg/injection, vehicle: water) 62 % of control; (dose: 12.0 mg/kg/injection, vehicle: water) 52 % of control.
With `[NH-]C(CCC(N)=O)C(=O)O.[NH-]C(CCC(N)=O)C(=O)O.[Zn+2]` (stereo not drawn), the T/C reads like this: under setting [6], 83 % of control; under setting [7], 29 % of control; under setting [2], 54 % of control.
`O=C(O)CCCc1ccc(N(CCCl)CCCl)cc1`: the T/C was 93 % of control (dose: 0.13 mg/kg/injection, vehicle: Klucel (hydroxypropylcellulose) (HPC)); 101 % of control (dose: 0.2 mg/kg/injection, vehicle: Klucel (hydroxypropylcellulose) (HPC)); 169 % of control (dose: 0.3 mg/kg/injection, vehicle: Klucel (hydroxypropylcellulose) (HPC)); 118 % of control (dose: 12.0 mg/kg/injection, vehicle: saline with Tween-80); 64 % of control (dose: 18.0 mg/kg/injection, vehicle: saline with Tween-80); 15 % of control (dose: 27.0 mg/kg/injection, vehicle: saline with Tween-80).
